Source: patent US8507436B2, “Peptides derived from plasminogen activator inhibitor-1 and uses thereof” (D-Pharm Ltd., priority 2007, dated 2013)
Where “and” joins values, the source holds several entries; their conditions need not be identical. Equal entries are not always repeated.

Legend:
tPA [1] = target: T1, tPA (Homo sapiens, UniProt P00750); experiment: tPA-related mortality and intracranial hemorrhage after transient mechanical obstruction of the MCA in rats; type: in vivo
T1 construct: purchased Genentech, Inc., South San Francisco, Calif
Experimental: MCA occlusion. All studies were conducted in accordance with the NIH Guide for the Care and Use of Laboratory Animals. Sprague-Dawley rats (mean weight 250 g) were fed on regular chow and allowed free access to drinking water. Rats were anesthetized with an i.p. injection of ketamine (75 mg per ml, Apharmo) and xylazine (5 mg per ml, Bayer). Body temperature was maintained at 37±0.5° C. by means of a heating lamp. Focal cerebral ischemia was induced by occluding the left MCA with an intraluminal filament (Ding-Zhou, L. et al. 2002 Eur J. Pharmacol. 457, 137-146). Briefly, the left common and external carotid arteries were isolated through a midline neck incision and ligated with a 4-0 silk suture (Ethicon). An arteriotomy was fashioned in the common carotid artery just proximal to the carotid bifurcation. A 4-0 nylon monofilament (Ethicon) was introduced through this incision into the internal carotid artery and advanced distal to the carotid bifurcation to occlude the origin of the MCA; the thread was carefully withdrawn 2 hours later. tPA alone at the indicated concentrations, tPA together with the PAI-1 derived peptides 206 (EEIIMD of SEQ ID NO: 11) or peptide 218 N (Ac-RMAPEEIIMDRPFLFVVR-amide of SEQ ID NO: 1) or peptide 218 O (Ac-RMAPEEIIMDRPFLYVVR-amide of SEQ ID NO: 2) were injected i.v. 2 hours after the thread had been withdrawn. Rats were returned to their cages after recovering from anesthesia. Twenty-four hours later. rats were euthanized with an overdose of Nembutal and the infarct size was measured.

tPA [2] = target: T1, tPA; experiment: tPA-induced opening of the BBB in mice (Evans blue); type: in vivo; details: C57/B16 mice, 10 mg/kg tPA with 10 μM peptide i.v.
Description: The brain content of Evans blue was quantified by absorbance at 620 nm.

tPA [3] = target: T2, tPA (Rattus norvegicus, UniProt P19637); experiment: Infarct volume after embolic stroke in rats; type: in vivo; details: peptide 1 mg per kg in saline, absence of tPA
T2 construct: purchased Genentech, Inc., South San Francisco, Calif
Experimental: (§1) Embolic stroke Embolic stroke was induced according to the previously reported microembolism model (Bdeir, K. et al. 2000 Blood 96, 1820-1826) as adapted to stroke (Atochin, D. N. et al. 2004. Stroke 35, 2177-2182). Microemboli were prepared, dissected, and homogenized as described (Bdeir K et al. 2000, supra). The suspension of microemboli used to induce stroke contained 1.4×10^6 microparticles, with an average diameter of 3 μm.
(§2) Experiments were performed in rats as described previously (Ding-Zhou, L. et al. 2002, supra) with some modifications. Briefly, Sprague-Dawley rats (mean weight 250 g) were anesthetized by i.p. injection of ketamine (75 mg per mL) and xylazine (5 mg per mL). The carotid artery was exposed and an arteriotomy was performed. A polyethylene catheter with an inner diameter of […] was used to inject the solution of microemboli (1.4×10^6 particles) directly into the exposed internal carotid artery. The catheter was flushed with 0.25 ml normal saline and carefully withdrawn. After washing the surgical site with saline containing 1 mM hexacapron, the incision was closed.
(§3) After induction of embolic stroke, rats were divided into 4 treatment groups (n=7 each): tPA (6 mg per kg) or tPA (6 mg per kg) with either peptide 206, peptide 218 O, or peptide 218 N (1 mg per kg) in normal saline were injected i.v., 2 hours after the catheter was withdrawn. Control groups received a vehicle consisting of normal saline alone or peptides 206 or 218 (1 mg per kg) in saline. 50% of the dose was given as a bolus injection and the remainder was infused over 60 min. The rats were returned to their cages after recovering from anesthesia. Twenty-four hours after the procedure, the rats were euthanized with an overdose of Nembutal and the infarct size was measured.
(§4) Measuring infarct volume The brain was removed and sectioned coronally into 2-mm segments. Brain slices were immersed in 2% 2,3,5-triphenyltetrazolium chloride (TTC) in saline, incubated for 30 minutes at 37° C. and placed in 4% formalin/PBS overnight. The area of infarction remains unstained, appearing white, making it clearly distinguishable from stained viable tissue. The sections were photographed and the infarct area measured using the NIH computer image analysis program. Infarct volume was defined as the sum of the unstained areas of all sections, multiplied by their thickness and expressed in cubic millimeters. Data are represented as mean±SE. Differences were analyzed by ANOVA followed by the t-test and the level of significance was corrected using a post-hoc analysis with the Bonferroni test. Statistical significance was set at P<0.05.
(§5) The effect of PAI-1 derived peptides on tPA treated rats after embolic stroke induced by injection of microthrombi directly into the MCA was also examined. […]

tPA [4] = experiment: Infarct volume after embolic stroke in rats; type: in vivo
Experimental: as §1, §2, §3, §4, §5

tPA [5] = experiment: Brain water content after fluid percussion brain injury (FPI) in piglets; type: in vivo, pigs; details: for Brain water content after FPI in the presence of tPA: tPA 2 mg/kg i.v. with peptide 1 mg/kg i.v.
Experimental: (§6) Fluid Percussion Brain Injury (FPI) method. The method was performed as described by Armstead et al., Nat. Neurosci.
(§7) Brain water content Brain water content (BWC) was determined by measuring the wet and dry weights of the brain tissue and by using the formula BWC=wet weight-dry weight/wet weight×100. Data were analyzed by analysis of variants with a Student-Newman-Keuls post-hoc test. A P<0.05 was considered significant.
(§8) Brain water content (BWC) was determined by measuring the wet and dry weights of the brain tissue and by using the formula BWC=wet weight-dry weight/wet weight×100. Data were analyzed by analysis of variants with a Fischer's post-hoc test. A P<0.05 was considered significant.

tPA [6] = target: T3, tPA (Sus scrofa, UniProt Q8SQ23); experiment: as above; type: in vivo, pigs; details: peptide 1 mg/kg i.v. 30 min prior to FPI, no exogenous tPA, normal 78.87±0.75%, vehicle after injury 84.1±0.45%
T3 construct: purchased Genentech, Inc., South San Francisco, Calif
Experimental: as §6, §7, §8

tPA [7] = target: T1, tPA; type: in vivo; details: rats
Experimental: MCA occlusion. All studies were conducted in accordance with the NIH Guide for the Care and Use of Laboratory Animals. Sprague-Dawley rats (mean weight 250 g) were fed on regular chow and allowed free access to drinking water. Rats were anesthetized with an i.p. injection of ketamine (75 mg per ml, Apharmo) and xylazine (5 mg per ml, Bayer). Body temperature was maintained at 37±0.5° C. by means of a heating lamp. Focal cerebral ischemia was induced by occluding the left MCA with an intraluminal filament (Ding-Zhou, L. et al. 2002 Eur J. Pharmacol. 457, 137-146). Briefly, the left common and external carotid arteries were isolated through a midline neck incision and ligated with a 4-0 silk suture (Ethicon). An arteriotomy was fashioned in the common carotid artery just proximal to the carotid bifurcation. […] Twenty-four hours later. rats were euthanized with an overdose of Nembutal and the infarct size was measured.
Measuring infarct volume The brain was removed and sectioned coronally into 2-mm segments. […] The sections were photographed and the infarct area measured using the NIH computer image analysis program. […] Differences were analyzed by ANOVA followed by the t-test and the level of significance was corrected using a post-hoc analysis with the Bonferroni test. […]
The effect of the PAI-1 derived peptides on infarct size after transient mechanical obstruction of the MCA in rats treated with tPA was examined. tPA injected intravenously two hours after establishing reperfusion increased the infarct size from 16±4.6 to 48.333±8.7 mm3 (FIG. 2). […] The infarct size measured in the presence of peptide 206 was 20.333±4.8 while in the presence of peptide 218 N its size was only 13.3±3.6 mm3 (P<0.05; FIG. 2).
The effect of the PAI-1 derived peptides on infarct size was determined in rats that underwent MCA and reperfusion and four hours later treated with tPA alone or together with PAI-1 derived peptides. tPA injected intravenously four hours after establishing reperfusion increased the infarct size from 68±7 to 77±9 mm3 (FIG. 7).

T1 sequence (P00750 36-562): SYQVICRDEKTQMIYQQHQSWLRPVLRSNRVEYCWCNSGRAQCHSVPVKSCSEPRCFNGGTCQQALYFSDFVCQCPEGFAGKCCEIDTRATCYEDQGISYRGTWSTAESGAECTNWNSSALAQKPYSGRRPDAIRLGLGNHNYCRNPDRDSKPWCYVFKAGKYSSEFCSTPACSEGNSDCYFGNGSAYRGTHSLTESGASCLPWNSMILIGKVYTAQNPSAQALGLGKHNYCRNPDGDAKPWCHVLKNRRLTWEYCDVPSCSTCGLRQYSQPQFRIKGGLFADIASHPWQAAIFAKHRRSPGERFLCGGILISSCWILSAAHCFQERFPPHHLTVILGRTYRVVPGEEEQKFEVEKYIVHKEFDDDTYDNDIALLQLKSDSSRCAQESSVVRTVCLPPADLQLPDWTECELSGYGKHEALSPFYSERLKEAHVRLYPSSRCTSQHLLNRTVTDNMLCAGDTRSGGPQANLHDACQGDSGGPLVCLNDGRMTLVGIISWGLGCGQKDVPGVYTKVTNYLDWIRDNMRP
T2 sequence (P19637 33-559): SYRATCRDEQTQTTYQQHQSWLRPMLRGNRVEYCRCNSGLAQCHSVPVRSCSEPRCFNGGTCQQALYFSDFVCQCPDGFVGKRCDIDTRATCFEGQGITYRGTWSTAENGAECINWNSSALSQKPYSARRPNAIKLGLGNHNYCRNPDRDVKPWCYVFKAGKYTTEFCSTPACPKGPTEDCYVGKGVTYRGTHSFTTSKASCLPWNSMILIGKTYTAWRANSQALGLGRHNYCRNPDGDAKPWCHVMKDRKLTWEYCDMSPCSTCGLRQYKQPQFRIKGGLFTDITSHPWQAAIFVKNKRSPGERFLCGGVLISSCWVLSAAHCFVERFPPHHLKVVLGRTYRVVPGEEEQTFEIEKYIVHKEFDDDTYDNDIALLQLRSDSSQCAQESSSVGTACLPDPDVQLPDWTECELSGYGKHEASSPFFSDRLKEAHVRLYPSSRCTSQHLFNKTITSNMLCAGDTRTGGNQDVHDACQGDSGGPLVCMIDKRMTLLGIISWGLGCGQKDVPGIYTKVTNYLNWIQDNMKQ
T3 sequence (Q8SQ23 36-562): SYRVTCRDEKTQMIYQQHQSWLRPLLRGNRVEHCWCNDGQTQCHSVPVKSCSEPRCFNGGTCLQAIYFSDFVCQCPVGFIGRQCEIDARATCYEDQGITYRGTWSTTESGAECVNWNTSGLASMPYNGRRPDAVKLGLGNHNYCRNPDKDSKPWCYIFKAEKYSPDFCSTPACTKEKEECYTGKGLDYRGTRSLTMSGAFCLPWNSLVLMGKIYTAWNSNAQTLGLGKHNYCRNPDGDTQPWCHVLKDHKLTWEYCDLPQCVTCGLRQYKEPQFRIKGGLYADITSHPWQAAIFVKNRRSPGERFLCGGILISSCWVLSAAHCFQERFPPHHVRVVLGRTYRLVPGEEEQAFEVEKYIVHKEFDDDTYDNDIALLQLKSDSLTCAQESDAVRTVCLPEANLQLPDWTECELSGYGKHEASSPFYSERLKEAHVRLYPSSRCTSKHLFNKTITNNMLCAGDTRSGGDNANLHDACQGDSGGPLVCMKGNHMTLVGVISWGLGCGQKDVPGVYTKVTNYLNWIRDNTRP

| Compound | Absolute mortality, tPA co-injected with peptide (FIG. 6A) (tPA [1]; mechanical MCA obstruction, tPA alone 28.6%) [%] | Reduction of the tPA associated increase in mortality (FIG. 6B) (tPA [1]; mechanical MCA obstruction, tPA with peptide) [%] | tPA-induced mortality with peptide, in per cent from Table 1 (tPA [1]; tPA plus peptide, tPA alone ~29%) [%] | Prevention of tPA-induced loss of BBB integrity (tPA [2]) | Post-stroke infarct size, peptide alone (tPA [3]) | Infarct volume, tPA with peptide (tPA [4]; tPA 6 mg per kg with peptide 1 mg per kg i.v. two hours after embolization) | Brain water content after FPI in the presence of tPA (tPA [5]) [%] | Brain water content after FPI (tPA [6]) [%] | Infarct size, tPA with peptide four hours after reperfusion (FIG. 7) (tPA [7]; MCA and reperfusion, tPA co-injected with peptide four hours later) | Mortality, tPA alone, in per cent from Table 1 (tPA [1]; 6 out of 21) [%] | Mortality (dead rats/rats in group) (tPA [1]; Table 1, control 1/12) | Mortality rate, tPA alone (FIG. 6) (tPA [1]; mechanical MCA obstruction, tPA i.v. two hours after reperfusion, saline control 7.7%) [%] | Decrease of infarct volume by tPA alone (tPA [4]; tPA 6 mg per kg i.v. two hours after embolization) | Brain water content after FPI, tPA alone (tPA [5]; tPA 2 mg/kg i.v. without peptide) [%] | Infarct size, tPA alone four hours after reperfusion (tPA [7]; MCA and reperfusion, tPA i.v. four hours later, control 68±7) [mm3] | Infarct size, tPA alone (tPA [7]; mechanical MCA obstruction, tPA i.v. two hours after reperfusion, saline control 16±4.6) [mm3] |
| --- | --- | --- | --- | --- | --- | --- | --- | --- | --- | --- | --- | --- | --- | --- | --- | --- |
| CC[C@H](C)[C@H](NC(=O)[C@H](CCC(=O)O)NC(=O)[C@H](CCC(=O)O)NC(=O)[C@@H]1CCCN1C(=O)[C@H](C)NC(=O)[C@H](CCSC)NC(=O)[C@H](CCCNC(=N)N)NC(C)=O)C(=O)N[C@H](C(=O)N[C@@H](CCSC)C(=O)N[C@@H](CC(=O)O)C(=O)N[C@@H](CCCNC(=N)N)C(=O)N1CCC[C@H]1C(=O)N[C@@H](Cc1ccccc1)C(=O)N[C@@H](CC(C)C)C(=O)N[C@@H](Cc1ccccc1)C(=O)N[C@H](C(=O)N[C@H](C(=O)N[C@@H](CCCNC(=N)N)C(N)=O)C(C)C)C(C)C)[C@@H](C)CC [peptide 218 N, Ac-RMAPEEIIMDRPFLFVVR-amide] | 15.4 | 63 | 9 | about 90% | significantly reduced post-stroke infarct size | smaller infarct volumes than those treated with tPA and peptide 206 or tPA and peptide 218 O | 79.643±0.51 | 79.343±0.25 | significantly stronger than that of 218 O and 206 | – | – | – | – | – | – | – |
| EEIIMD [peptide 206, 6-mer peptide corresponding to amino acid residues 373-378 of human PAI-1] | – | – | – | no effect | little effect on infarct size | – | 82.351±0.55 | 81.379±0.3 | – | – | – | – | – | – | – | – |
| tPA: Recombinant tPA purchased from Genentech; thrombolytic agent, tissue-type plasminogen activator | – | – | – | – | – | – | – | – | – | ~29 | 6 out of 21 and 6/21 | 28.6 | approximately 48% | 87.12±0.6 | 77±9 | 48.333±8.7 |
